Key:
Assay type in all cases: in vivo
[1] = tested on: CD-1 Swiss/UCàdiz mice; assay: Body weight of mice on l-thioproline-supplemented diet; parameters: Variation: percentage reduction in weight between supplemented mice and control mice: concentration or dose not given beside the values; details: for Average weight: average ± SEM
Excerpt: To study the effect of thioproline, particularly of l-thioproline, on feeding behavior, CD-1 Swiss/UCàdiz mice bred in the Animal Experimentation department of the Universidad de Càdiz were used.
(§1) The mice strain used in this study, CD-1 Swiss/UCàdiz, is a type of mice with accelerated senescence similar to the AKR, SAM, NZB/Lac, and SJL/J mice having a mean life span of 36-57 weeks and a maximum life expectancy of 52-83 weeks. These mice have been used in the Universidad de Càdiz in several survival studies (Navarro A, Gomez C, Sanchez-Pino M J, Gonzalez H. Bandez M J, Boveris A D and Boveris A. Vitamin E at high doses improves survival, neurological performance, and brain mitochondrial function in aging male mice. Am J Physiol Regul Integr Comp Physiol 289: R1392-R1399, 2005; Navarro A, Gomez C, Lopez-Cepero J M and Boveris A. Beneficial effects of moderate exercise on mice aging: survival, behavior, oxidative stress, and mitochondrial electron transfer. Am J Physiol Regul Integr Comp Physiol 286: R505-R511, 2004; Navarro A, Sanchez Del Pino M J, Gomez C, Peralta J L and Boveris A. Behavioral dysfunction, brain oxidative stress, and impaired mitochondrial electron transfer in aging mice. Am J Physiol Regul Integr Comp Physiol 282: R985-R992, 2002).
The mice were stabled in groups of 5 animals at 22±2° C. with 12 h/12 h of light/dark cycles and with free access, ad libitum, to food and water.
(§2) The control group received standard laboratory animal food (A04 diet, Panlab LS, Barcelona, Spain), whereas the l-thioproline-supplemented mice received the same food as the mice in the control group, but supplemented with 2.0 g of l-thioproline (Sigma Aldrich)/kg of food from 28 weeks of age and until the end of their lives.
The food was weighed daily. The mice were weighed weekly, and it was periodically controlled that the animals were pathogen-free.

[2] = tested on: CD-1 Swiss/UCàdiz mice; assay: Average daily food intake ad libitum; details: diet with 2.0 g l-thioproline/kg of food
Experimental: To study the effect of thioproline, particularly of l-thioproline, on feeding behavior, CD-1 Swiss/UCàdiz mice bred in the Animal Experimentation department of the Universidad de Càdiz were used. The mice were stabled in groups of 5 animals at 22±2° C. with 12 h/12 h of light/dark cycles and with free access, ad libitum, to food and water. The control group received standard laboratory animal food (A04 diet, Panlab LS, Barcelona, Spain), whereas the l-thioproline-supplemented mice received the same food as the mice in the control group, but supplemented with 2.0 g of l-thioproline (Sigma Aldrich)/kg of food from 28 weeks of age and until the end of their lives. The food was weighed daily. The mice were weighed weekly, and it was periodically controlled that the animals were pathogen-free.

[3] = tested on: CD-1 Swiss/UCàdiz mice; assay: Survival of thioproline-supplemented mice; details: for Mean life span / Maximum life expectancy: supplemented mice n=70; for Mean life span: control 62±4 weeks; for Maximum life expectancy: control 118±4 weeks
Excerpt: as §1, §2
The date on which each mouse died (Example 1) was controlled to be able to obtain the survival curves.

[4] = tested on: CD-1 Swiss/UCàdiz mice; assay: Neurological tests (tightrope test and T maze test); details: once a week, FIG. 2A, 2B
Excerpt: The animals of Example 1 were subjected to two tests once a week to evaluate neurological capacities, specifically to the tightrope test and the T maze test. The assayed animals were the animals mentioned in Example 1, i.e. the group of control mice and the group of mice with an l-thioproline-supplemented diet according to the treatment described in the Example 1. This test allows evaluating neuromuscular coordination. The mice were suspended in the center of a 60 cm wide tightrope and the time it took them to reach one of the columns located at the end of the rope was measured. The test was considered positive when the animal reached one of the ends in less than 60 seconds. This test measures spontaneous cognitive neurological activity. The mice were placed in a T maze with 50 cm arms, and the test was considered successful when the mice reached the intersection in less than 60 seconds.

## O=C(O)C1CSCN1 (stereo not drawn) [l-thioproline, thiazolidine-4-carboxylic acid]
[1]; after 12 weeks of l-thioproline-supplemented diet, FIG. 1
  Weight increase versus control group: smaller weight increase than the increase observed in the control group
[1]; age 28 weeks
  Variation: percentage reduction in weight between supplemented mice and control mice: 2.06%
[1]; age 28 weeks (start of supplementation), diet with 2.0 g l-thioproline/kg of food
  Average weight: 42.7 ± 0.4 g
[1]; age 52 weeks
  Variation: percentage reduction in weight between supplemented mice and control mice: 4.45%
[1]; age 52 weeks, diet with 2.0 g l-thioproline/kg of food from 28 weeks of age
  Average weight: 47.2 ± 0.4 g
[1]; age 78 weeks
  Variation: percentage reduction in weight between supplemented mice and control mice: 11.65%
[1]; age 78 weeks, diet with 2.0 g l-thioproline/kg of food from 28 weeks of age
  Average weight: 48.5 ± 0.5 g
[1]; age 100 weeks
  Variation: percentage reduction in weight between supplemented mice and control mice: 10.18%
[1]; age 100 weeks, diet with 2.0 g l-thioproline/kg of food from 28 weeks of age
  Average weight: 49.4 ± 0.5 g
[2]
  Spontaneous reduction of the intake versus control mice: approximately 20%
[2]; control 6.3±0.03 g/day
  Average daily intake ad libitum: 5.1 ± 0.03 g/day
[3]; from 62 weeks to 80 weeks
  Prolongation of mean life span versus control: approximately 29%
[3]; from 118 weeks to 145 weeks
  Prolongation of maximum life versus control: approximately 23%
[3]
  Mean life span: 80 weeks
  Maximum life expectancy: 145 weeks
[3]; listed as thioproline
  Mean life span: 80±3 weeks
  Maximum life expectancy: 145±3 weeks
[4]
  Improvement in the neurological tests compared to control group: 17-39%

— patent US20090298895A1, “USE OF THIOPROLINE IN BODY WEIGHT REDUCTION TREATMENTS” (Universidad De Cadiz, priority 2006, published 2009)
